≈ marks a conversion by molar mass, not a printed value.
Key:
MCF-7 cells = assay: MTT antiproliferative activity assay, MCF-7; format: cell-based, human; conditions: MTT, 48 h treatment, average of three replicates
Description: (§1) Hep-2 (larynx carcinoma, ATCC: CCL-23), MCF-7 (breast epithelial adenocarcinoma, ATCC: HTB-22), and Vero (African green monkey kidney, ATCC: CCL-81) cell lines were kindly provided by Dr. Mona Hassuneh (Department of Biological Sciences, University of Jordan). Cells were grown in Minimum Essential Medium Eagle (Gibco, Paisley UK) supplemented with 10% heat inactivated fetal bovine serum (Gibco, Paisley UK), 29 μg/mL L-glutamine, and 40 μg/mL gentamicin. Cells were incubated in a humidified atmosphere of 5% CO2 at 37 °C.
(§2) The antiproliferative activity of Inula viscosa compounds was measured using the MTT (3-(4,5-dimethylthiazol-2-yl)-2,5-diphenyltetrazolium bromide) assay (Promega, Madison, WI, USA). The assay detects the reduction of MTT by mitochondrial dehydrogenase to blue formazan product, which reflects the normal function of mitochondria and cell viability. Exponentially growing cells were washed and seeded at 17,000 cells/well for Hep-2 cell line and 11,000 cells/ well for MCF-7 cell line (in 200 μL of growth medium) in 96 well microplates (Nunc, Roskilde, Denmark). After 24 h incubation, a partial monolayer was formed then the media was removed and 200 μL of the medium containing the compound (initially dissolved in DMSO) were added and re-incubated for 48 h. Then 100 μL of the medium were aspirated and 15 μL of the MTT solution were added to the remaining medium (100 μL) in each well. After 4 h contact with the MTT solution, blue crystals were formed. One hundred μL of the stop solution were added and incubated further for 1 h.
(§3) Reduced MTT was assayed at 550 nm using a microplate reader (Biotek, Winooski, VT, USA). Control groups received the same amount of DMSO (0.1%).Untreated cells were used as a negative control while, cells treated with vincristine sulfate were used as a positive control. Eight concentrations (150, 100, 50, 20, 10, 5, 2, and 1 μg/mL) were prepared from each compound and tested against the three cell lines. IC50 values were calculated as the concentrations that show 50% inhibition of proliferation on any tested cell line. Stock solutions of the compounds were dissolved in (DMSO) then diluted with the medium and sterilized using 0.2 μm membrane filters. The toxicity of DMSO was determined and the final dilution of compounds used for treating the cells contained not more than 0.1% (non toxic concentration) DMSO. IC50 values were reported as the average of three replicates. The antiproliferative effect of the tested compounds was determined by comparing the optical density of the treated cells against the optical density of the control (cells treated with media containing 0.1% DMSO).

Hep-2 cells = assay: MTT antiproliferative activity assay, Hep-2; format: cell-based; conditions: MTT, 48 h treatment, average of three replicates
Description: as §1, §2, §3

Vero cells = assay: MTT antiproliferative activity assay, Vero; format: cell-based, African green monkey; conditions: MTT, 48 h treatment, average of three replicates
Description: as §1, §2, §3

[1] = tested on: Methicillin resistant Staphylococcus aureus (MRSA); assay: Microtiter plate dilution MIC, MRSA; format: cell-based; conditions: clinical isolate, 24 h, 100% inhibition; for MIC: Staphylococcus aureus, MRSA, read-out: Minimum inhibitory concentration (MIC) MRSA
Description: (§4) The microbial strains used in this study were Escherichia coli (ATCC 10798), Salmonella typhimurium (ATCC14028), Methicillin resistant Staphylococcus aureus (MRSA, Clinical isolate), Bacillus cereus (Toxigenic strain TS), and Candida albicans (ATCC 90028). Bacterial strains were stocked onto nutrient agar slant at 4 °C, and Candida albicans was stocked onto malt agar slant at 4 °C.
(§5) The microtiter plate dilution method was used to determine the MIC (minimum inhibitory concentration) of compounds under study. Sterile 96-well microplates (Nunc) were used for the assay. Stock compounds were dissolved in DMSO so that the final concentrations in micro wells were less than 1% DMSO and solvent controls were run at these concentrations. Positive controls of penicillin G and tetracycline (Oxoid, Hampshire, UK) were prepared at the following concentrations 2, 4, 8, 16, 31, 62.5, 125, and 250 μg/mL. 1% DMSO was used as a solvent control. Compounds were diluted to twice the desired initial test concentration (250 µg/mL) with Muller Hinton broth (MHB) (Oxoid). All wells, except the first were filled with MHB (50 μL). Compounds (100 μL) were added to the first well and serial two-fold dilutions were made down to the desired minimum concentration (2 μg/mL). An over-night culture of bacteria suspended in MHB was adjusted to turbidity equal to 0.5 McFarland standard. The plates were inoculated with bacterial suspension (50 μL/well) and incubated at 37 °C for 24 h. Then the turbidity was measured using micro-plate reader (Biotek) at 620 nm wavelength. The same procedure was used to determine the antifungal activity of compounds against Candida albicans. The medium used was malt extract broth. The yeast cells were suspended in 0.85% saline, with an optical density equivalent to 0.5 McFarland standard, and diluted 1:100 in malt extract broth to obtain the working concentration. After 24 h incubation with each compound, the turbidity was measured at 530 nm wavelength using a spectrophotometer (Biotek). Percentage inhibition for tested microorganisms was calculated using the following formula:
(§6) MIC was determined as the lowest concentration of the compound that causes complete inhibition (100%) of each microorganism.

Escherichia coli = assay: Microtiter plate dilution MIC, E. coli; format: cell-based; conditions: ATCC 10798, 24 h, 100% inhibition; for MIC: Escherichia coli, ATCC10798, read-out: Minimum inhibitory concentration (MIC) E.c
Description: as §4, §5, §6

Salmonella typhimurium = assay: Microtiter plate dilution MIC, S. typhimurium; format: cell-based; conditions: ATCC14028, 24 h, 100% inhibition; for MIC: Salmonella enterica, ATCC 14028 / TYPHIMURIUM, read-out: Minimum inhibitory concentration (MIC) S.t
Description: as §4, §5, §6

Bacillus cereus = assay: Microtiter plate dilution MIC, B. cereus; format: cell-based; conditions: Toxigenic strain TS, 24 h, 100% inhibition; for MIC: Bacillus cereus, read-out: Minimum inhibitory concentration (MIC) B.c
Description: as §4, §5, §6

Candida albicans = assay: Microtiter plate dilution MIC, C. albicans; format: cell-based; conditions: ATCC 90028, malt extract broth, 24 h, 100% inhibition
Description: as §4, §5, §6

Molecule	IC50 MCF-7 (MCF-7 cells) [µg/mL]	IC50 Hep-2 (Hep-2 cells) [µg/mL]	IC50 Vero (Vero cells) [µg/mL]	Minimum inhibitory concentration (MIC) MRSA [1] [µg/mL]	Minimum inhibitory concentration (MIC) E.c (Escherichia coli) [µg/mL]	Minimum inhibitory concentration (MIC) S.t (Salmonella typhimurium) [µg/mL]	Minimum inhibitory concentration (MIC) B.c (Bacillus cereus) [µg/mL]	Minimum inhibitory concentration (MIC) C.a (Candida albicans) [µg/mL]	MIC [1] [µg/mL]	MIC (Escherichia coli) [µg/mL]	MIC (Salmonella typhimurium) [µg/mL]	MIC (Bacillus cereus) [µg/mL]	IC50 (MCF-7 cells; Homo sapiens, MCF7, read-out: IC50 MCF-7) [µg/mL]	IC50 (Hep-2 cells; Homo sapiens, HEp-2, read-out: IC50 Hep-2) [µg/mL]	IC50 (Vero cells; Chlorocebus sabaeus, Vero, read-out: IC50 Vero) [µg/mL]	MIC (Candida albicans; Candida albicans, ATCC90028, read-out: Minimum inhibitory concentration (MIC) C.a) [µg/mL]
Xepetin	>150	>150	>150	>250	>250	>250	>250	>250	–	–	–	–	–	–	–	–
C=C1C[C@@H]2OC(=O)[C@@H](C)[C@H]2C[C@@H]2[C@@H]1CC[C@@]2(C)O [11α,13-Dihydroinuviscolide]	>150	>150	>150	>250	>250	>250	>250	>250	–	–	–	–	–	–	–	–
CC[C@H](CC[C@@H](C)[C@H]1CC[C@H]2[C@@H]3CC=C4C[C@@H](O[C@@H]5O[C@H](CO)[C@@H](O)[C@H](O)[C@H]5O)CC[C@]4(C)[C@H]3CC[C@]12C)C(C)C [β-Sitosteryl glucoside]	>150	>150	>150	>250	>250	>250	>250	>250	–	–	–	–	–	–	–	–
CN(C)[C@@H]1C(O)=C(C(N)=O)C(=O)[C@@]2(O)C(O)=C3C(=O)c4c(O)cccc4[C@@](C)(O)[C@H]3C[C@@H]12 [Tetracycline, reference compound]	–	–	–	–	–	–	–	–	125 (≈ 281 µM)	150 (≈ 338 µM)	4 (≈ 9 µM)	2 (≈ 4.5 µM)	–	–	–	–
COc1c(O)cc2oc(-c3ccc(O)c(O)c3)cc(=O)c2c1O [Nepetin]	5.87 ± 1.36 (≈ 18.6 µM)	11.33 ± 0.98 (≈ 35.8 µM)	103.54 ± 2.82 (≈ 327 µM)	250 (≈ 790 µM)	>250	>250	>250	>250	–	–	–	–	–	–	–	–
C=C(C(=O)O)[C@@H]1CC[C@@]2(C)C[C@@H](O)C[C@@](C)(O)[C@@H]2C1 [2α-Hydroxyilicic acid]	>150	>150	>150	>250	>250	>250	>250	>250	–	–	–	–	–	–	–	–
C=C1C(=O)O[C@H]2CC(=C)[C@H]3CC[C@@](C)(O)[C@@H]3C[C@H]12 [Inuviscolide]	–	–	–	–	–	–	–	–	> 250	> 250	> 250	> 250	> 150	148.8 ± 1.25 (≈ 599 µM)	> 150	> 250

From publication PMC6268972, “Antiproliferative, Antimicrobial and Apoptosis Inducing Effects of Compounds Isolated from Inula viscosa” (Molecules, 2012)
